The structures appear in SMILES notation. “And” between values parts separate entries of the source, which are not always exact repeats. Identical values can stand only once. Inconclusive results and toxic doses are left out.

The experiment has as its system BDF1 mice, P388 leukemia (terephthalanilide-resistant), survival T/C. Description: NCI In Vivo Anticancer Drug Screen. Data for tumor model P388 Leukemia resistant to A Terephthalanilide; NSC 38280 (intraperitoneal) in B6D2F1 (BDF1) mice. The settings on record: endpoint: median survival time, higher = longer survival. As to the method: The antitumor activity of compounds was measured in mice bearing transplantable tumors. Survival or tumor size were measured and the results are expressed as the measurement made in the treated group (T) divided by the measurement made in the vehicle treated control group (C). The tumor model used in this assay is P388 Leukemia resistant to A Terephthalanilide; NSC 38280 (intraperitoneal) in B6D2F1 (BDF1) mice

[1] abbreviates: dose: 2.0 mg/kg/injection, schedule: Q01DX010 (ip), vehicle: saline.
The mark [2] stands for this setting: dose: 10.0 mg/kg/injection, schedule: Q01DX010 (ip), vehicle: saline.
Setting [3] is: dose: 20.0 mg/kg/injection, schedule: Q01DX010 (ip), vehicle: saline.
The mark [4] stands for this setting: dose: 40.0 mg/kg/injection, schedule: Q01DX010 (ip), vehicle: saline.
The mark [5] stands for this setting: dose: 5.0 mg/kg/injection, schedule: Q01DX010 (ip), vehicle: saline.
Setting [6] is: dose: 62.5 mg/kg/injection, schedule: Q01DX010 (ip), vehicle: saline.
Where [7] appears, read: dose: 125.0 mg/kg/injection, schedule: Q01DX010 (ip), vehicle: saline.
The mark [8] stands for this setting: dose: 250.0 mg/kg/injection, schedule: Q01DX010 (ip), vehicle: saline.
Setting [9] is: dose: 500.0 mg/kg/injection, schedule: Q01DX010 (ip), vehicle: saline.
Where [10] appears, read: dose: 12.0 mg/kg/injection, schedule: Q01DX010 (ip), vehicle: saline.
Where [11] appears, read: dose: 27.0 mg/kg/injection, schedule: Q01DX010 (ip), vehicle: saline.
Setting [12] is: dose: 90.0 mg/kg/injection, schedule: Q01DX010 (ip), vehicle: saline.

For the compound `CN(Cc1cnc2nc(N)nc(N)c2n1)c1ccc(C(=O)N[C@@H](CCC(=O)O)C(=O)O)cc1`, the T/C was 122 % of control (dose: 0.19 mg/kg/injection, schedule: Q01DX010 (ip), vehicle: other); 172 % of control and 195 % of control (dose: 0.38 mg/kg/injection, schedule: Q01DX Z (ip), vehicle: saline); 194 % of control (dose: 0.75 mg/kg/injection, schedule: Q01DX010 (ip), vehicle: other); 272 % of control and 277 % of control (dose: 0.75 mg/kg/injection, schedule: Q01DX Z (ip), vehicle: saline); 216 % of control (dose: 1.5 mg/kg/injection, schedule: Q01DX010 (ip), vehicle: other); 213 % of control and 272 % of control (dose: 1.5 mg/kg/injection, schedule: Q01DX Z (ip), vehicle: saline). The T/C (dose: 3.0 mg/kg/injection, schedule: Q01DX010 (ip), vehicle: other) was 111 % of control; the T/C (dose: 3.0 mg/kg/injection, schedule: Q01DX Z (ip), vehicle: saline) is 90 % of control and 95 % of control.
For `O=C(Nc1ccc(NC2=NCCN2)cc1)c1ccc(C(=O)Nc2ccc(NC3=NCCN3)cc2)cc1`, the T/C reads like this: under setting [1], 100 % of control and 106 % of control; (dose: 4.0 mg/kg/injection, schedule: Q01DX010 (ip), vehicle: saline) 150 % of control; (dose: 8.0 mg/kg/injection, schedule: Q01DX010 (ip), vehicle: saline) 181 % of control.
In the case of `CC1CCOS(=O)O1` (stereo not drawn), the T/C was 100 % of control under setting [2], 95 % of control under setting [3] and 100 % of control under setting [4].
For `CN(C)c1ccc(/C=C/c2ccnc3ccccc23)cc1`, the T/C under setting [5] is 100 % of control and 111 % of control; the T/C under setting [2] was 100 % of control and 111 % of control; the T/C under setting [3] was 90 % of control and 94 % of control; the T/C under setting [4] is 116 % of control.
For the compound `O=CCC(O)C(O)C(O)CO` (stereo not drawn), the T/C was 110 % of control and 111 % of control under setting [6]; 100 % of control and 110 % of control under setting [7]; 110 % of control and 111 % of control under setting [8]; 115 % of control and 122 % of control under setting [9].
With `O=C(Nc1ccc(C2=NCCN2)cc1)c1cc(C(=O)Nc2ccc(C3=NCCN3)cc2)cc([N+](=O)[O-])c1`, the T/C (dose: 167.0 mg/kg/injection, schedule: Q01DX010 (ip), vehicle: saline) is 94 % of control; the T/C under setting [8] is 100 % of control; the T/C (dose: 375.0 mg/kg/injection, schedule: Q01DX010 (ip), vehicle: saline) was 94 % of control; the T/C (dose: 512.0 mg/kg/injection, schedule: Q01DX010 (ip), vehicle: saline) was 94 % of control.
On to `CN(C)CC(=O)c1ccc(O)c(O)c1`, for which the T/C is 113 % of control (dose: 200.0 mg/kg/injection, schedule: Q01DX010 (ip), vehicle: saline); 113 % of control (dose: 300.0 mg/kg/injection, schedule: Q01DX010 (ip), vehicle: saline); 113 % of control (dose: 450.0 mg/kg/injection, schedule: Q01DX010 (ip), vehicle: saline).
Turning to `CC/C(=C(/CC)c1ccc(O)cc1)c1ccc(O)cc1`, the T/C was 90 % of control (dose: 12.5 mg/kg/injection, schedule: Q01DX010 (sc), vehicle: steriod suspending solution); 90 % of control (dose: 25.0 mg/kg/injection, schedule: Q01DX010 (sc), vehicle: steriod suspending solution); 90 % of control (dose: 100.0 mg/kg/injection, schedule: Q01DX010 (sc), vehicle: steriod suspending solution).
As for `c1ccc(CCSc2ncnc3nc[nH]c23)cc1`, the T/C by setting is: under setting [6], 90 % of control; under setting [7], 90 % of control; under setting [8], 100 % of control; under setting [9], 100 % of control.
On to `CN(C)c1ccc(Nc2c3ccccc3nc3ccccc23)cc1`, for which the T/C was 95 % of control (dose: 16.0 mg/kg/injection, schedule: Q01DX010 (ip), vehicle: saline); 104 % of control (dose: 24.0 mg/kg/injection, schedule: Q01DX010 (ip), vehicle: saline); 100 % of control and 104 % of control and 108 % of control (dose: 36.0 mg/kg/injection, schedule: Q01DX010 (ip), vehicle: saline); 95 % of control and 100 % of control and 104 % of control (dose: 54.0 mg/kg/injection, schedule: Q01DX010 (ip), vehicle: saline); 90 % of control and 109 % of control (dose: 80.0 mg/kg/injection, schedule: Q01DX010 (ip), vehicle: saline).
Consider `COc1cc(-c2ccc(Nc3ccccc3C(=O)O)c(OC)c2)ccc1Nc1ccccc1C(=O)O`, for which the T/C runs as follows: (dose: 67.0 mg/kg/injection, schedule: Q01DX010 (ip), vehicle: saline) 159 % of control; (dose: 100.0 mg/kg/injection, schedule: Q01DX010 (ip), vehicle: saline) 159 % of control.
With `N=[N+]=CC(=O)OCC(N)C(=O)O` (stereo not drawn), the T/C is, setting by setting: (dose: 12.5 mg/kg/injection, schedule: Q01DX010 (ip), vehicle: saline) 115 % of control and 116 % of control; (dose: 25.0 mg/kg/injection, schedule: Q01DX010 (ip), vehicle: saline) 88 % of control.
For `C[n+]1c2ccccc2nc2c(N)cc(N)cc21`, the T/C under setting [10] was 100 % of control; the T/C (dose: 18.0 mg/kg/injection, schedule: Q01DX010 (ip), vehicle: saline) is 100 % of control; the T/C under setting [11] is 91 % of control.
On to `CS(=O)(=O)OCCN(CCOS(C)(=O)=O)c1ccc(N=O)cc1`, for which the T/C is, setting by setting: (dose: 0.5 mg/kg/injection, schedule: Q01DX010 (ip), vehicle: saline) 100 % of control; (dose: 1.0 mg/kg/injection, schedule: Q01DX010 (ip), vehicle: saline) 109 % of control; under setting [1], 109 % of control and 113 % of control.
With `O=P1(N(CCCl)CCCl)NCCCO1` (stereo not drawn), the T/C (dose: 11.3 mg/kg/injection, schedule: Q01DX005 (ip), vehicle: saline) was 100 % of control and 109 % of control; the T/C (dose: 11.3 mg/kg/injection, schedule: Q01DX010 (ip), vehicle: saline) is 111 % of control; the T/C (dose: 22.5 mg/kg/injection, schedule: Q01DX005 (ip), vehicle: saline) was 118 % of control and 122 % of control; the T/C (dose: 45.0 mg/kg/injection, schedule: Q01DX005 (ip), vehicle: saline) was 154 % of control; the T/C (dose: 45.0 mg/kg/injection, schedule: Q01DX010 (ip), vehicle: saline) was 183 % of control; the T/C (dose: 90.0 mg/kg/injection, schedule: Q01DX005 (ip), vehicle: saline) is 272 % of control. The T/C runs as follows: under setting [12], 105 % of control; (dose: 180.0 mg/kg/injection, schedule: Q01DX010 (ip), vehicle: saline) 88 % of control.
As for `CCCSc1ncnc2nc[nH]c12`, the T/C was 118 % of control (dose: 31.3 mg/kg/injection, schedule: Q01DX010 (ip), vehicle: saline) and 112 % of control under setting [6].
As for `O=C(Nc1cccc(NC(=O)Nc2cccc(C3=NCCN3)c2)c1)Nc1cccc(C2=NCCN2)c1`, the T/C under setting [11] was 111 % of control; the T/C under setting [4] is 111 % of control; the T/C (dose: 66.0 mg/kg/injection, schedule: Q01DX010 (ip), vehicle: saline) was 111 % of control; the T/C under setting [12] was 111 % of control.
On to `CC1CN=C(c2ccc(NC(=O)c3ccc(C(=O)Nc4ccc(C5=NCC(C)N5)cc4)cc3)cc2)N1` (stereo not drawn), for which the T/C under setting [2] was 111 % of control; the T/C (dose: 15.0 mg/kg/injection, schedule: Q01DX010 (ip), vehicle: saline) was 111 % of control; the T/C (dose: 22.0 mg/kg/injection, schedule: Q01DX010 (ip), vehicle: saline) was 111 % of control; the T/C (dose: 33.0 mg/kg/injection, schedule: Q01DX010 (ip), vehicle: saline) is 111 % of control.
Regarding `Cc1cc(N(CCCl)CCCl)ccc1N=Nc1ccccc1C(=O)O`, the T/C runs as follows: under setting [5], 116 % of control; under setting [4], 100 % of control.
Take `N=C(N)c1ccc(Nc2ccc(C(=N)N)cc2)cc1`: the T/C reads like this: (dose: 3.0 mg/kg/injection, schedule: Q01DX010 (ip), vehicle: saline) 105 % of control; (dose: 6.0 mg/kg/injection, schedule: Q01DX010 (ip), vehicle: saline) 100 % of control; under setting [10], 90 % of control.
Turning to `Nc1nc2n[nH]nc2c(=O)[nH]1`, the T/C reads like this: (dose: 25.0 mg/kg/injection, schedule: Q01DX010 (ip), vehicle: alkali diluted with saline) 162 % of control; (dose: 50.0 mg/kg/injection, schedule: Q01DX010 (ip), vehicle: alkali diluted with saline) 162 % of control; (dose: 100.0 mg/kg/injection, schedule: Q01DX010 (ip), vehicle: alkali diluted with saline) 175 % of control; (dose: 200.0 mg/kg/injection, schedule: Q01DX010 (ip), vehicle: alkali diluted with saline) 175 % of control.

These data come from PubChem BioAssay AID338 (DTP/NCI, 2004).
